pIC50: −log10 of the molar value.
The compounds below were run against T1, Met kinase domain (GST fusion protein) (Homo sapiens, UniProt P08581) (assay: Met transphosphorylation assay (ELISA, poly(glu-tyr) substrate)). Details: Table 2; read-out: Met IC50.
T1 construct: Purified GST fusion protein containing the Met kinase domain
T1 sequence (P08581 1078-1345 limits assumed): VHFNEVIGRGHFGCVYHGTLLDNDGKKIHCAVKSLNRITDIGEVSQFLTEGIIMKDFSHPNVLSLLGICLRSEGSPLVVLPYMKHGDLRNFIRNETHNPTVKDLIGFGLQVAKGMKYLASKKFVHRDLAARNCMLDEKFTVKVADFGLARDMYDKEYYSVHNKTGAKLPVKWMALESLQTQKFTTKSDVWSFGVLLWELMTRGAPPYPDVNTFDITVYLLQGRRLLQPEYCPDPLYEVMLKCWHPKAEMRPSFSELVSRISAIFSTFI
Type: biochemical
Protocol: General procedure is as follows: a compound is introduced to cells expressing the test kinase, either naturally or recombinantly, for a selected period of time after which, if the test kinase is a receptor, a ligand known to activate the receptor is added. The cells are lysed and the lysate is transferred to the wells of an ELISA plate previously coated with a specific antibody recognizing the substrate of the enzymatic phosphorylation reaction. Non-substrate components of the cell lysate are washed away and the amount of phosphorylation on the substrate is detected with an antibody specifically recognizing phosphotyrosine compared with control cells that were not contacted with a test compound.
Met Transphosphorylation Assay
This assay is used to measure phosphotyrosine levels on a poly(glutamic acid:tyrosine, 4:1) substrate as a means for identifying agonists/antagonists of met transphosphorylation of the substrate.
PBS, Gibco Catalog # 450-1300EB • 4. 50 mM HEPES • 5. […] Purified GST fusion protein containing the Met kinase domain, SUGEN, Inc. • 7. TBST Buffer. • 8. 10% aqueous (MilliQue H2O) DMSO. • 9. […] 2× Kinase Dilution Buffer: for 100 mL, mix 10 mL 1M HEPESat pH 7.5 with 0.4 mL 5% BSA/PBS, 0.2 mL 0.1 M sodium orthovanadate and 1 mL 5M sodium chloride in 88.4 mL dH2O. • 11. 4× ATP Reaction Mixture: for 10 mL, mix 0.4 mL 1 M manganese chloride and 0.02 mL 0.1 M ATP in 9.56 mL dH2O. • 12. 4× Negative Controls Mixture: for 10 mL, mix 0.4 mL 1 M manganese chloride in 9.6 mL dH2O. • 13. […] 500 mM EDTA. • 15. Antibody Dilution Buffer: for 100 mL, mix 10 mL 5% BSA/PBS, 0.5 mL 5% Carnation® Instant Milk in PBS and 0.1 mL 0.1 M sodium orthovanadate in 88.4 mL TBST. • 16. Rabbit polyclonal antophosphotyrosine antibody, SUGEN, Inc. • 17. Goat anti-rabbit horseradish peroxidase conjugated antibody, Biosource, Inc. • 18. ABTS Solution: for 1 L, mix 19.21 g citric acid, 35.49 g Na2HPO4 and 500 mg ABTS with sufficient dH2O to make 1 L. • 19. ABTS/H2O2: mix 15 mL ABST solution with 2μL H2O2 five minutes before use. • 20. 0.2 M HCl Procedure: • 1. Coat ELISA plates with 2 μg Poly(Glu-Tyr) in 100 μL PBS, hold-overnight at 4° C. • 2. Block plate with 150 μL of 5% BSA/PBS for 60 min. • 3. Wash plate twice with PBS then once with 50 mM Hepes buffer pH 7.4. • 4. Add 50 μl of the diluted kinase to all wells. (Purified kinase is diluted with Kinase Dilution Buffer. Final concentration should be 10 ng/well.) • 5. Add 25 μL of the test compound (in 4% DMSO) or DMSO alone (4% in dH2O) for controls to plate. • 6. Incubate the kinase/compound mixture for 15 minutes. • 7. Add 25 μL of 40 mM MnCl2 to the negative control wells. • 8. Add 25 μL ATP/MnCl2 mixture to the all other wells (except the negative controls). Incubate for 5 min. • 9. Add 25 μL 500 mM EDTA to stop reaction. • 10. Wash plate 3× with TBST. • 11. Add 100 μL rabbit polyclonal anti-Ptyr diluted 1:10,000 in Antibody Dilution Buffer to each well. Incubate, with shaking, at room temperature for one hour. • 12. Wash plate 3× with TBST. • 13. […] Add 100 μL per well and incubate at room temperature, with shaking, for one hour. • 14. Wash plate 1× with PBS. • 15. Add 100 μl of ABTS/H2O2 solution to each well. • 16. If necessary, stop the development reaction with the addition of 100 μl of 0.2M HCl per well. • 17.
`CN(C)C1CCN(C(=O)c2ccc(-c3cnc(N)c(OCc4ccc(C(C)(C)C)cc4)c3)cc2)C1` (stereo in doubt) [Example I-196, {4-[6-Amino-5-(4-tert-butyl-benzyloxy)-pyridin-3-yl]-phenyl}-[(3R)-3-dimethylamino-pyrrolidin-1-yl]-methanone] was tested, and the pIC50 was 5.37.

Same assay, conditions: read-out: Met IC50
`Nc1ncc(-c2cccc(NS(=O)(=O)CCN3CCCC3CO)c2)nc1OCc1c(F)ccc(F)c1Cl` (stereo not shown) was tested, and the pIC50 was 5.86. Work on `Nc1ncc(-c2cccc(OCCN3CCOCC3)c2)cc1OCc1c(Cl)cccc1Cl` [Example I-3, 3-(2,6-Dichloro-benzyloxy)-5-[3-(2-morpholin-4-yl-ethoxy)-phenyl]-pyridin-2-ylamine] yielded a pIC50 of 6.23. `Nc1ncc(-c2cccc3[nH]ccc23)cc1OCc1c(Cl)cccc1Cl` [Example I-4, 3-(2,6-Dichloro-benzyloxy)-5-(1H-indol-4-yl)-pyridin-2-ylamine] showed a pIC50 of 5.85. Work on `Nc1ncc(-c2cccc3[nH]ccc23)cc1OCc1c(Cl)cccc1-c1cccc2[nH]ccc12` [Example I-5, 3-[2-Chloro-6-(1H-indol-4-yl)-benzyloxy]-5-(1H-indol-4-yl)-pyridin-2-ylamine] yielded a pIC50 of 5.33. `CC(C)(C)OC(=O)n1cccc1-c1cnc(N)c(OCc2c(Cl)cccc2Cl)c1` [Example I-6, 2-[6-Amino-5-(2,6-dichloro-benzyloxy)-pyridin-3-yl]-pyrrole-1-carboxylic acid tert-butyl ester] was tested, and the pIC50 was < 4.70. Compound `Nc1ncc(-c2ccc[nH]2)cc1OCc1c(Cl)cccc1Cl` [Example I-7, 3-(2,6-Dichloro-benzyloxy)-5-(1H-pyrrol-2-yl)-pyridin-2-ylamine] has a pIC50 of 5.37. For `Nc1ncc(-c2ccc(F)cc2)cc1OCc1c(Cl)cccc1Cl` [Example I-8, 3-(2,6-Dichloro-benzyloxy)-5-(4-fluoro-phenyl)-pyridin-2-ylamine], the pIC50 was 5.10. `Nc1ncc(-c2ccccc2F)cc1OCc1c(Cl)cccc1Cl` [Example I-10, 3-(2 6-Dichloro-benzyloxy)-5-(2-fluoro-phenyl)-pyridin-2-ylamine] was tested, and the pIC50 was 5.22. For `Nc1ncc(-c2cccc(F)c2)cc1OCc1c(Cl)cccc1Cl` [Example I-11, 3-(2,6-Dichloro-benzyloxy)-5-(3-fluoro-phenyl)-pyridin-2-ylamine], the pIC50 was 4.86. `Nc1ccc(-c2cnc(N)c(OCc3c(Cl)cccc3Cl)c2)cc1` [Example I-12, 5-(4-Amino-phenyl)-3-(2,6-dichloro-benzyloxy)-pyridin-2-ylamine] was tested, and the pIC50 was 6.22. With `CS(=O)(=O)Nc1ccc(-c2cnc(N)c(OCc3c(Cl)cccc3Cl)c2)cc1` [Example I-13, N-{4-[6-Amino-5-(2,6-dichloro-benzyloxy)-pyridin-3-yl]-phenyl}-methanesulfonamide] the pIC50 was 6.36. For `CC(=O)Nc1ccc(-c2cnc(N)c(OCc3c(Cl)cccc3Cl)c2)cc1` [Example I-14, N-{4-[6-Amino-5-(2,6-dichloro-benzyloxy)-pyridin-3-yl]-phenyl}-acetamide], the pIC50 was < 4.70. For `Nc1ncc(-c2cccc(O)c2)cc1OCc1c(Cl)cccc1Cl` [Example I-15, 3-[6-Amino-5-(2,6-dichloro-benzyloxy)-pyridin-3-yl]-phenol], the pIC50 was 5.87. `COc1ccc(-c2cnc(N)c(OCc3c(Cl)cccc3Cl)c2)cc1` [Example I-16, 3-(2,6-Dichloro-benzyloxy)-5-(4-methoxy-phenyl)-pyridin-2-ylamine] showed a pIC50 of 5.18. `Nc1ncc(-c2cccc(OC(F)(F)F)c2)cc1OCc1c(Cl)cccc1Cl` [Example I-18, 3-(2,6-Dichloro-benzyloxy)- -5-(3-trifluoromethoxy-phenyl)-pyridin-2-ylamine] was tested, and the pIC50 was < 4.70. Compound `Nc1ncc(-c2ccccc2O)cc1OCc1c(Cl)cccc1Cl` [Example I-19, 2-[6-Amino-5-(2,6-dichloro-benzyloxy)-pyridin-3-yl]-phenol] has a pIC50 of 5.67. With `Nc1ncc(-c2ccccc2Oc2ccccc2)cc1OCc1c(Cl)cccc1Cl` [Example I-20, 3-(2,6-Dichloro-benzyloxy)-5-(2-phenoxy-phenyl)-pyridin-2-ylamine] the pIC50 was < 4.70. With `Nc1ncc(-c2ccc(F)c(F)c2)cc1OCc1c(Cl)cccc1Cl` [Example I-21, 3-(2,6-Dichloro-benzyloxy)-5-(3,4-difluoro-phenyl)-pyridin-2-ylamine] the pIC50 was 4.84. For `CC(C)c1cccc(-c2cnc(N)c(OCc3c(Cl)cccc3Cl)c2)c1` [Example I-22, 3-(2,6-Dichloro-benzyloxy)-5-(3-isopropyl-phenyl)-pyridin-2-ylamine], the pIC50 was 4.80. With `Nc1ncc(-c2ccccc2C(F)(F)F)cc1OCc1c(Cl)cccc1Cl` [Example I-23, 3-(2,6-Dichloro-benzyloxy)-5-(2-trifluoromethyl-phenyl)-pyridin-2-ylamine] the pIC50 was < 4.70. Work on `COc1ccccc1-c1cnc(N)c(OCc2c(Cl)cccc2Cl)c1` [Example I-24, 3-(2,6-Dichloro-benzyloxy)-5-(2-methoxy-phenyl)-pyridin-2-ylamine] yielded a pIC50 of 4.94. For `Nc1ncc(-c2ccc(C(F)(F)F)cc2)cc1OCc1c(Cl)cccc1Cl` [Example I-25], the pIC50 was < 4.70. With `CS(=O)(=O)Nc1ccccc1-c1cnc(N)c(OCc2c(Cl)cccc2Cl)c1` [Example I-26, N-{2-[6-Amino-5-(2,6-dichloro-benzyloxy)-pyridin-3-yl]-phenyl}-methanesulfonamide] the pIC50 was < 4.70. `Nc1ncc(-c2ccc(CO)cc2)cc1OCc1c(Cl)cccc1Cl` [Example I-27, {4-[6-Amino-5-(2,6-dichloro-benzyloxy)-pyridin-3-yl]-phenyl}-methanol] gave a pIC50 of 5.60. Work on `Nc1ncc(-c2ccc3c(c2)OCO3)cc1OCc1c(Cl)cccc1Cl` [Example I-28, 5-Benzo[1,3]dioxol-5-yl-3-(2,6-dichloro-benzyloxy)-pyridin-2-ylamine] yielded a pIC50 of 5.07.

What follows are compounds tested against T2, HGFR (Homo sapiens, UniProt P08581) (assay: HGFR continuous-coupled spectrophotometric assay). Details: Table 3, column 'Ki (μM) or I (%)': cells without % sign; read-out: Ki.
T2 construct: purchased Upstate 14-526
T2 sequence (P08581 974-1390 limits assumed): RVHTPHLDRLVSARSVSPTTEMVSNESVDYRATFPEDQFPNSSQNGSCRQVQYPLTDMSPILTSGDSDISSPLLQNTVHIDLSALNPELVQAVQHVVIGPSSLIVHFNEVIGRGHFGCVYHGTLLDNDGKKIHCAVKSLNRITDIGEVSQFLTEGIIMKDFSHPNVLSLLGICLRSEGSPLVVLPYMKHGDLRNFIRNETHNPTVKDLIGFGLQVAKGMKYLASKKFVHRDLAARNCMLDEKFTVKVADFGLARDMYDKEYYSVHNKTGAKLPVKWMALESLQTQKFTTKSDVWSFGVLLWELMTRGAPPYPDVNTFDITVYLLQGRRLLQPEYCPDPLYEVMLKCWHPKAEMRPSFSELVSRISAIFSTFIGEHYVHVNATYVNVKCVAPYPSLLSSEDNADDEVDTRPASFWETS
Type: biochemical
With “(4-{6-Amino-5-[1-(2,6- dichloro-3-fluoro-phenyl)- ethoxy]-pyridin-3-yl}- phenyl)-(4-ethyl-piperizin- 1-yl)-methanone [Example I-633]” the Ki was 0.0472 µM.

Same assay, conditions: at 1 pM; Table 6, library procedure 41; read-out: % Inhibition (percent c-MET inhibition)
With `Nc1ncc(C(=O)N2CCC3(CC2)COC(CCc2ccnnc2)C3)cc1OCc1c(Cl)cccc1Cl` [Example L-343] the inhibition at 1 pM was 37%. Compound `CCc1ccc(COCC2CCN(C(=O)c3cnc(N)c(OCc4c(Cl)cccc4Cl)c3)CC2)nc1` [Example L-344] has an inhibition at 1 pM of 41%. For `Cc1ccn2cc(CNC(=O)c3cnc(N)c(OCc4c(Cl)cccc4Cl)c3)nc2n1` [Example L-345], the inhibition at 1 pM was 45%. For `Nc1ncc(C(=O)N2CCn3c(CO)nnc3C2)cc1OCc1c(Cl)cccc1Cl` [Example L-346], the inhibition at 1 pM was 31%. Compound `Cc1ccc2nc(CNC(=O)c3cnc(N)c(OCc4c(Cl)cccc4Cl)c3)cn2c1` [Example L-347] has an inhibition at 1 pM of 38%. With `Nc1ncc(C(=O)N2CCC(COc3cccc4cccnc34)C2)cc1OCc1c(Cl)cccc1Cl` [Example L-348] the inhibition at 1 pM was 35%. `Nc1ncc(C(=O)N2CCC3(CC2)CC3C(=O)NCC2CC2)cc1OCc1c(Cl)cccc1Cl` [Example L-349] showed an inhibition at 1 pM of 32%. In the case of `Nc1ncc(C(=O)N2CCC3(CC2)COC(CCc2cc(O)n[nH]2)C3)cc1OCc1c(Cl)cccc1Cl` [Example L-350], the inhibition at 1 pM was 34%. In the case of `Cn1ccnc1SCC1(O)CCCN(C(=O)c2cnc(N)c(OCc3c(Cl)cccc3Cl)c2)CC1` [Example L-351], the inhibition at 1 pM was 35%. In the case of `CC(C)CNC(=O)c1ccc(Cl)c(CNC(=O)c2cnc(N)c(OCc3c(Cl)cccc3Cl)c2)c1` [Example L-352], the inhibition at 1 pM was 47%.
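Wherever Met IC50 is given: Cell-free ELISA with plate-bound poly(Glu:Tyr 4:1) phosphorylated by GST-fused Met kinase domain plus ATP and Mn2+, phosphotyrosine detected by anti-phosphotyrosine antibody with HRP and ABTS read-out.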
